Tests used:
[1] = tested on: E. faecalis CL 4877 (VanB); assay: microbe, parasite or virus in culture; format: cell-based; set-up: CL4877 (in vitro testing): unit not given here; conditions: Tables 7 and 8; unit not given
Summary of the method: (§1)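 NCCLS M7-A4-based broth microdilution with twofold serial dilutions, incubated at 35° C; medium BHI for enterococci and VISA/MRSA, cation-adjusted Mueller-Hinton for E. coli. Inoculum about 1-5×10^6 CFU/ml (enterococci) or 3-7×10^5 CFU/ml (others); MIC is lowest concentration with no visible growth, read at 18-20 hr for E. coli, 22-24 hr otherwise.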

[2] = tested on: E. faecium CL 4931 (VanA); assay: microbe, parasite or virus in culture; format: cell-based; set-up: CL4931 (in vitro testing): unit not given here; conditions: Tables 7 and 8; unit not given
Summary of the method: as §1

[3] = tested on: CL 4931, CL 5053, CL 5242 and CL 4877; format: cell-based, E. faecium, E. faecalis; set-up: unit not given here; conditions: mean of CL4931, CL5053, CL5242, CL4877; unit not given
Summary of the method: as §1

[4] = tested on: E. faecium CL 5242 (VanA); assay: microbe, parasite or virus in culture; format: cell-based; set-up: CL5242 (in vitro testing): unit not given here; conditions: Tables 7 and 8; unit not given
Summary of the method: as §1

[5] = tested on: E. faecium CL 5053 (VanA); assay: microbe, parasite or virus in culture; format: cell-based; set-up: CL5053 (in vitro testing): unit not given here; conditions: Tables 7 and 8; unit not given
Summary of the method: as §1

Row | SMILES | CL4877 (in vitro testing) [1] | CL4931 (in vitro testing) [2] | Mean [3] | CL5242 (in vitro testing) [4] | CL5053 (in vitro testing) [5]
1 | CNC(CC(C)C)C(=O)NC1C(=O)NC(CC(N)=O)C(=O)NC2C(=O)NC3C(=O)NC(C(=O)NC(C(=O)O)c4cc(O)cc(O)c4-c4cc3ccc4O)C(O)c3ccc(c(Cl)c3)Oc3cc2cc(c3OC2OC(CN)C(O)C(O)C2OC2CC(C)(NCc3ccc(OCc4c(Cl)cccc4Cl)cc3)C(O)C(C)O2)Oc2ccc(cc2Cl)C1O (stereo not shown) [Compound 176] | >16 | 16 | 13 | 4 | 16
2 | CNC(CC(C)C)C(=O)NC1C(=O)NC(CC(N)=O)C(=O)NC2C(=O)NC3C(=O)NC(C(=O)NC(C(=O)O)c4cc(O)cc(O)c4-c4cc3ccc4O)C(O)c3ccc(c(Cl)c3)Oc3cc2cc(c3OC2OC(CN)C(O)C(O)C2OC2CC(C)(NCc3ccc(OCc4ccc(C(=O)OC)cc4)cc3)C(O)C(C)O2)Oc2ccc(cc2Cl)C1O (stereo not shown) [Compound 177] | >16 | >16 | 13 | 4 | >16
3 | CNC(CC(C)C)C(=O)NC1C(=O)NC(CC(N)=O)C(=O)NC2C(=O)NC3C(=O)NC(C(=O)NC(C(=O)O)c4cc(O)cc(O)c4-c4cc3ccc4O)C(O)c3ccc(c(Cl)c3)Oc3cc2cc(c3OC2OC(CN)C(O)C(O)C2OC2CC(C)(NCc3ccc(OCc4ccc([N+](=O)[O-])cc4)cc3)C(O)C(C)O2)Oc2ccc(cc2Cl)C1O (stereo not shown) [Compound 178] | >32 | 32 | 27 | 8 | >32
4 | CNC(CC(C)C)C(=O)NC1C(=O)NC(CC(N)=O)C(=O)NC2C(=O)NC3C(=O)NC(C(=O)NC(C(=O)O)c4cc(O)cc(O)c4-c4cc3ccc4O)C(O)c3ccc(c(Cl)c3)Oc3cc2cc(c3OC2OC(CN)C(O)C(O)C2OC2CC(C)(NCc3ccc(OCc4ccc(C(F)(F)F)cc4)cc3)C(O)C(C)O2)Oc2ccc(cc2Cl)C1O (stereo not shown) [Compound 179] | 4 | 8 | 3.25 | 1 | 8
5 | CNC(CC(C)C)C(=O)NC1C(=O)NC(CC(N)=O)C(=O)NC2C(=O)NC3C(=O)NC(C(=O)NC(C(=O)O)c4cc(O)cc(O)c4-c4cc3ccc4O)C(O)c3ccc(c(Cl)c3)Oc3cc2cc(c3OC2OC(CN)C(O)C(O)C2OC2CC(C)(NCc3ccc(OCc4ccccc4C(F)(F)F)cc3)C(O)C(C)O2)Oc2ccc(cc2Cl)C1O (stereo not shown) [Compound 180] | 16 | 16 | 12.5 | 2 | 16
6 | CNC(CC(C)C)C(=O)NC1C(=O)NC(CC(N)=O)C(=O)NC2C(=O)NC3C(=O)NC(C(=O)NC(C(=O)O)c4cc(O)cc(O)c4-c4cc3ccc4O)C(O)c3ccc(c(Cl)c3)Oc3cc2cc(c3OC2OC(CN)C(O)C(O)C2OC2CC(C)(NCc3ccc(OCc4ccc(F)cc4Cl)cc3)C(O)C(C)O2)Oc2ccc(cc2Cl)C1O (stereo not shown) [Compound 181] | 32 | 16 | 21 | 4 | 32
7 | CNC(CC(C)C)C(=O)NC1C(=O)NC(CC(N)=O)C(=O)NC2C(=O)NC3C(=O)NC(C(=O)NC(C(=O)O)c4cc(O)cc(O)c4-c4cc3ccc4O)C(O)c3ccc(c(Cl)c3)Oc3cc2cc(c3OC2OC(CN)C(O)C(O)C2OC2CC(C)(NCc3ccc(OCc4ccccc4Cl)cc3)C(O)C(C)O2)Oc2ccc(cc2Cl)C1O (stereo not shown) [Compound 182] | >16 | >16 | 13 | 4 | >16
8 | CNC(CC(C)C)C(=O)NC1C(=O)NC(CC(N)=O)C(=O)NC2C(=O)NC3C(=O)NC(C(=O)NC(C(=O)O)c4cc(O)cc(O)c4-c4cc3ccc4O)C(O)c3ccc(c(Cl)c3)Oc3cc2cc(c3OC2OC(CN)C(O)C(O)C2OC2CC(C)(NCc3ccc(OCc4ccc(Cl)c(Cl)c4)cc3Cl)C(O)C(C)O2)Oc2ccc(cc2Cl)C1O (stereo not shown) [Compound 183] | 2 | 8 | 4 | 2 | 4
9 | CNC(CC(C)C)C(=O)NC1C(=O)NC(CC(N)=O)C(=O)NC2C(=O)NC3C(=O)NC(C(=O)NC(C(=O)O)c4cc(O)cc(O)c4-c4cc3ccc4O)C(O)c3ccc(c(Cl)c3)Oc3cc2cc(c3OC2OC(CN)C(O)C(O)C2OC2CC(C)(NCc3ccc(OCc4ccc(Cl)c(Cl)c4)c(OC)c3)C(O)C(C)O2)Oc2ccc(cc2Cl)C1O (stereo not shown) [Compound 184] | 8 | 4 | 4.5 | 2 | 4
10 | CNC(CC(C)C)C(=O)NC1C(=O)NC(CC(N)=O)C(=O)NC2C(=O)NC3C(=O)NC(C(=O)NC(C(=O)O)c4cc(O)cc(O)c4-c4cc3ccc4O)C(O)c3ccc(c(Cl)c3)Oc3cc2cc(c3OC2OC(CN)C(O)C(O)C2OC2CC(C)(NCc3ccc(OCc4ccc(Cl)c(Cl)c4)cc3OC)C(O)C(C)O2)Oc2ccc(cc2Cl)C1O (stereo not shown) [Compound 185] | 4 | 8 | 8 | 4 | 16
11 | CNC(CC(C)C)C(=O)NC1C(=O)NC(CC(N)=O)C(=O)NC2C(=O)NC3C(=O)NC(C(=O)NC(C(=O)O)c4cc(O)cc(O)c4-c4cc3ccc4O)C(O)c3ccc(c(Cl)c3)Oc3cc2cc(c3OC2OC(CN)C(O)C(O)C2OC2CC(C)(NCc3ccc(Oc4ccc(Cl)c(Cl)c4)cc3)C(O)C(C)O2)Oc2ccc(cc2Cl)C1O (stereo not shown) [Compound 186] | 8 | 8 | 6.5 | 2 | 8
12 | CNC(CC(C)C)C(=O)NC1C(=O)NC(CC(N)=O)C(=O)NC2C(=O)NC3C(=O)NC(C(=O)NC(C(=O)O)c4cc(O)cc(O)c4-c4cc3ccc4O)C(O)c3ccc(c(Cl)c3)Oc3cc2cc(c3OC2OC(CN)C(O)C(O)C2OC2CC(C)(NCc3ccc(C(=O)Oc4ccc(Cl)cc4)cc3)C(O)C(C)O2)Oc2ccc(cc2Cl)C1O (stereo not shown) [Compound 187] | 32 | 16 | 17 | 4 | 16
13 | CNC(CC(C)C)C(=O)NC1C(=O)NC(CC(N)=O)C(=O)NC2C(=O)NC3C(=O)NC(C(=O)NC(C(=O)O)c4cc(O)cc(O)c4-c4cc3ccc4O)C(O)c3ccc(c(Cl)c3)Oc3cc2cc(c3OC2OC(CN)C(O)C(O)C2OC2CC(C)(NCc3ccc(C(=O)Oc4ccc(Cl)c(Cl)c4)cc3)C(O)C(C)O2)Oc2ccc(cc2Cl)C1O (stereo not shown) [Compound 188] | 16 | 8 | 11 | 4 | 16
14 | CNC(CC(C)C)C(=O)NC1C(=O)NC(CC(N)=O)C(=O)NC2C(=O)NC3C(=O)NC(C(=O)NC(C(=O)O)c4cc(O)cc(O)c4-c4cc3ccc4O)C(O)c3ccc(c(Cl)c3)Oc3cc2cc(c3OC2OC(CN)C(O)C(O)C2OC2CC(C)(NCC(=O)Oc3ccc(-c4ccc(Cl)c(Cl)c4)cc3)C(O)C(C)O2)Oc2ccc(cc2Cl)C1O (stereo not shown) [Compound 189] | 32 | 32 | 32 | 32 | >32

— patent US6841661B2, “Glycopeptide antibacterial compounds, compositions containing same and methods of using same” (Princeton Univerisity, priority 1999, dated 2005)
